Here are results for 14 molecules from US20240368214A1, “POSITIVE NMDA-MODULATING COMPOUNDS AND METHODS OF USE THEREOF” (SAGE THERAPEUTICS, INC., priority 2021, published 2024).

The target of this test is T1, recombinant human GluN1/GluN2A receptor (Homo sapiens, UniProt Q05586+Q12879).
T1 construct: expressed in transfected cells; host or cells: HEK293, tetracycline-inducible expression
The test is described as follows: Whole-cell patch clamp of mammalian cells (Syncropatch 384i), NMDA modulation. To be noted: HEK293 cells, human GluN1/GluN2A, glutamate 1 μM / glycine 100 μM, -80 mV, peak amplitude increase; for EC50: read-out: EC50. The format is cell-based. The source says: Whole-Cell Patch Clamp of Mammalian Cells (Syncropatch 384i (Nanion Technologies))
Whole-cell patch clamp electrophysiology was used to investigate the effects of compounds on GluN1/GluN2A N-methyl-D-aspartate (NMDA) glutamate receptors expressed in mammalian cells.
Human embryonic kidney (HEK293) cells expressing the recombinant human GluN1/GluN2A receptor under the control of a tetracycline-inducible expression system were used. Cells were maintained in Dulbecco's Modified Eagle's Medium (DMEM) with 1% glutamine, 10% Tetracycline System Approved fetal bovine serum (FBS), and NMDA inhibitors. Cells were cultured in a humidified 5% CO2 incubator at 37° C. Cells were induced with 50 ng/ml tetracycline 18-24 hours prior to testing. A cocktail of channel blockers was added to the media to prevent cell death.
Cells were 60-80% confluent at the time of harvest. Cells were detached from the flask TrypLE Enzyme Express (Thermo Fisher) at 37° C., and then cold extracellular solution was added to the flask, followed by incubation at 4° C. and then trituration of the cells. The cell solution was then placed on a shaker on the Syncropatch platform at 10° C. with a shake speed of a minimum 200 rpm for at least 30 minutes prior to testing.
Extracellular (EC) solution (in mM) —140 NaCl, 4 KCl, 5 CaCl2, 10 HEPES, 5 Glucose, pH 7.4 with NaOH. All external solutions contained 0.2% DMSO and 0.01% Kolliphor® EL (C5135, Sigma) throughout the experiment.
Intracellular (IC) solution (in mM) —120 CsF, 10 mM EGTA, 10 NaCl, 10 HEPES, 4 NaATP, 2 MgCl2, pH 7.2 with CsOH.
First, the DMSO Master Plate was prepared, in which the DMSO stock of each test compound was serially diluted in 100% DMSO to 1000× the final assay concentration. Immediately prior to assay testing, the compounds were diluted 1:100 by transferring solutions from the DMSO Mast Plate to the Intermediate Plate pre-filled with EC solution using a Biomek FX automated liquid handling system. Compounds were then diluted further with extracellular solution into two pre-incubation plates—1) compound from the Intermediate Plate was mixed with EC solution at a 1:5 dilution to create a 2× Compound Pre-Incubation Plate which was diluted a further 1:2 when added to the Syncropatch for the initial compound pre-incubation. And 2) compound from the Intermediate plate was mixed with EC solution at a 1:10 Dilution to create the 1× Compound Pre-Incubation Plate, which was used for subsequent compound pre-incubations. Finally, a Compound+Agonist Plate was prepared by mixing compound from the 2× Compound Pre-Incubation Plate with 2× concentration of co-agonists in a 1:1 ratio.
Each experiment sequentially included cell catching, sealing, whole-cell formation, liquid application, recording and data acquisition. Whole-cell patch clamp recordings were performed using multi-hole high resistance chips on the SyncroPatch 384i (Nanion Technologies). A steady-state voltage pulse at -80 mV was applied throughout the assay and a 10 second recording window was triggered around 1 second prior to application of co-agonists. Currents were leak corrected and sampled at 5 kHz.
A fast application was used, in which 5 μl co-agonist was rapidly applied at a speed of 30 μl/s and then rapidly removed from the well. To test for modulator activity, the co-agonists glutamate (1 μM) and glycine (100 μM) were applied three times to show activation reproducibility, followed by 120 seconds pre-incubation of test compound alone. The test compound was then re-applied in the presence of co-agonists two times. This was followed by application of the agonist alone, although test compound may not be fully washed from the well prior to this step. Finally, a saturating concentration of co-agonists (glutamate 100 μM/glycine 100 μM) was applied.
The voltage protocol generation data collection and analysis were performed on PatchControll384 and DataControll384. […]

Like-named read-outs stand apart in the source and are kept apart here.

T1 sequence (Q12879 23-1464, other chains not shown): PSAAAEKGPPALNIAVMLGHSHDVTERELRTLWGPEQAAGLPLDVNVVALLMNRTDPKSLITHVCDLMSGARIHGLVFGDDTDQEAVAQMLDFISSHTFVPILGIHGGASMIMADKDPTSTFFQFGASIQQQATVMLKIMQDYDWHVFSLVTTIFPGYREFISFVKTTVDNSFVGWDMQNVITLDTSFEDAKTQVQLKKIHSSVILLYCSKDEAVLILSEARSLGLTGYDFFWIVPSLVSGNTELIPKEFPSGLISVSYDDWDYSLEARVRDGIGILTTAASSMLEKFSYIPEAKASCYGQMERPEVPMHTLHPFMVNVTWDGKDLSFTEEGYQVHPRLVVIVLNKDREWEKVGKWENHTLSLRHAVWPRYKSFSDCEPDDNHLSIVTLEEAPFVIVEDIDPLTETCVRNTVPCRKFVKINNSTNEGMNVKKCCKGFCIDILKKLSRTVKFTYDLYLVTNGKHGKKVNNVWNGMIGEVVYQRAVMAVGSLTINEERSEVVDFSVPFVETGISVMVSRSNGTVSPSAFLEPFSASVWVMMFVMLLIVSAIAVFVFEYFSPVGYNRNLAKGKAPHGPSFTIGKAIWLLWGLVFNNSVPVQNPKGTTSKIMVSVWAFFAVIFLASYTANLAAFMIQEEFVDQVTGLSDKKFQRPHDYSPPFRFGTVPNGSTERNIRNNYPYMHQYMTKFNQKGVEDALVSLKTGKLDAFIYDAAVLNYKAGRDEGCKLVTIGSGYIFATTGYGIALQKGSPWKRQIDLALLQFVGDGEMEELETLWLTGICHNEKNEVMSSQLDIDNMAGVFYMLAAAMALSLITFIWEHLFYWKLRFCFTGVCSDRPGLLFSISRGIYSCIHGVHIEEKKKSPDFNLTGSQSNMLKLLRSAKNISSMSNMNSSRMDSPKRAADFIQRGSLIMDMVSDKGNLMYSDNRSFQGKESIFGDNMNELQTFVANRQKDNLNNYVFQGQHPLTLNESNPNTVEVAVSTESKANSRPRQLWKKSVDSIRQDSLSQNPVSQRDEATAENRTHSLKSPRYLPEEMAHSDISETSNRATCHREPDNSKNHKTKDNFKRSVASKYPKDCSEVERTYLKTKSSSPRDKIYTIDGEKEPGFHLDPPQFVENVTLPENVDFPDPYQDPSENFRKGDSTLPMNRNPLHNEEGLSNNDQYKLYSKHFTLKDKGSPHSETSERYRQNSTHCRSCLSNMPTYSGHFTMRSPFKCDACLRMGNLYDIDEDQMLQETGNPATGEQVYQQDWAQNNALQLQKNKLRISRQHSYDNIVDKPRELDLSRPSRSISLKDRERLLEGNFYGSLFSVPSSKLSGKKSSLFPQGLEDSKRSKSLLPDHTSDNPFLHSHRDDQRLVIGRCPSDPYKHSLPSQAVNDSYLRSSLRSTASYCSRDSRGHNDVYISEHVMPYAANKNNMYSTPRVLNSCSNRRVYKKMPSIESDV

As usually defined, the Emax is the size of the effect at its maximum, as opposed to the concentration needed. As a reminder, the EC50 is the concentration at which the effect is half-maximal. Consider `CC[C@]1(O)CC[C@@]2(C)C(=CC[C@H]3[C@@H]4CC[C@H]([C@@H](CCCC(C)(C)O)OC)[C@@]4(C)CC[C@@H]32)C1` [Compound A-12, (3S,8S,9S,10R,13S,14S,17S)-3-ethyl-17-((R)-5-hydroxy-1-methoxy-5-methylhexyl)-10,13-dimethyl-2,3,4,7,8,9,10,11,12,13,14,15,16,17-tetradecahydro-1H-cyclopenta[a]phenanthren-3-ol], for which, where the note is “Table A-2”, the Emax was in the range of 100 to 200% and the EC50 lay in the range of 1 to 100 nM.
In the case of `CC[C@]1(O)CC[C@@]2(C)C(=CC[C@H]3[C@@H]4CC[C@H]([C@@H](CC[C@@](C)(O)C(F)(F)F)OC)[C@@]4(C)CC[C@@H]32)C1` [Compound A-13, (3S,8S,9S,10R,13S,14S,17S)-3-ethyl-10,13-dimethyl-17-((1R,4R)-5,5,5-trifluoro-4-hydroxy-1-methoxy-4-methylpentyl)-2,3,4,7,8,9,10,11,12,13,14,15,16,17-tetradecahydro-1H-cyclopenta[a]phenanthren-3-ol], where the note is “Table A-2”, the Emax was > 200% and the EC50 was in the range of 500 to 1000 nM.
With `CC[C@]1(O)CC[C@@]2(C)C(=CC[C@H]3[C@@H]4CC[C@H]([C@@H](CC[C@](C)(O)C(F)(F)F)OC)[C@@]4(C)CC[C@@H]32)C1` [Compound A-14, (3S,8S,9S,10R,13S,14S,17S)-3-ethyl-10,13-dimethyl-17-((1R,4S)-5,5,5-trifluoro-4-hydroxy-1-methoxy-4-methylpentyl)-2,3,4,7,8,9,10,11,12,13,14,15,16,17-tetradecahydro-1H-cyclopenta[a]phenanthren-3-ol], under “Table A-2”, the Emax is > 200% and the EC50 was in the range of 1 to 100 nM.
Turning to `CC[C@]1(O)CC[C@@]2(C)C(=CC[C@H]3[C@@H]4CC[C@H]([C@@H](CC[C@@H](O)C(C)C)OC)[C@@]4(C)CC[C@@H]32)C1` [Compound A-15, (3S,8S,9S,10R,13S,14S,17S)-3-ethyl-17-((1R,4R)-4-hydroxy-1-methoxy-5-methylhexyl)-10,13-dimethyl-2,3,4,7,8,9,10,11,12,13,14,15,16,17-tetradecahydro-1H-cyclopenta[a]phenanthren-3-ol], for the setting “Table A-2”, the Emax was > 200% and the EC50 was 1 to 100 nM.
The matching figures for `CC[C@]1(O)CC[C@@]2(C)C(=CC[C@H]3[C@@H]4CC[C@H]([C@@H](CC[C@H](O)C(C)C)OC)[C@@]4(C)CC[C@@H]32)C1` [Compound A-16, (3S,8S,9S,10R,13S,14S,17S)-3-ethyl-17-((1R,4S)-4-hydroxy-1-methoxy-5-methylhexyl)-10,13-dimethyl-2,3,4,7,8,9,10,11,12,13,14,15,16,17-tetradecahydro-1H-cyclopenta[a]phenanthren-3-ol]: > 200% and 1 to 100 nM.
As to `CC[C@]1(O)CC[C@@]2(C)[C@@H](CC[C@@H]3[C@@H]2CC[C@]2(C)[C@@H]([C@H](CC[C@H](O)C(C)C)C(F)(F)F)CC[C@@H]32)C1` [Compound A-17, (3S,5S,8R,9S,10S,13S,14S,17R)-3-ethyl-10,13-dimethyl-17-((2S,5S)-1,1,1-trifluoro-5-hydroxy-6-methylheptan-2-yl)hexadecahydro-1H-cyclopenta[a]phenanthren-3-ol], the EC50 (Table A-2) was > 1000 nM.
On the same count and under the same terms, next, `CC[C@]1(O)CC[C@@]2(C)[C@@H](CC[C@@H]3[C@@H]2CC[C@]2(C)[C@@H]([C@H](CCCC(C)(C)O)C(F)(F)F)CC[C@@H]32)C1` [Compound A-18, (3S,5S,8R,9S,10S,13S,14S,17R)-3-ethyl-10,13-dimethyl-17-((S)-1,1,1-trifluoro-6-hydroxy-6-methylheptan-2-yl)hexadecahydro-1H-cyclopenta[a]phenanthren-3-ol]: > 1000 nM; `CC[C@@H](CCCC(C)(C)O)[C@H]1CC[C@H]2[C@@H]3CC[C@H]4C[C@](O)(CC)CC[C@]4(C)[C@H]3CC[C@]12C` [Compound A-20, (3S,5S,8R,9S,10S,13R,14S,17R)-3-ethyl-17-((S)-7-hydroxy-7-methyloctan-3-yl)-10,13-dimethylhexadecahydro-1H-cyclopenta[a]phenanthren-3-ol]: > 1000 nM.
The same measure, in the same setting: next, `CC[C@]1(O)CC[C@@]2(C)[C@@H](CC[C@@H]3[C@@H]2CC[C@]2(C)[C@@H]([C@@H](CC[C@@](C)(O)C(F)(F)F)OC)CC[C@@H]32)C1` [Compound A-23, (3S,5S,8R,9S,10S,13S,14S,17S)-3-ethyl-10,13-dimethyl-17-((1R,4R)-5,5,5-trifluoro-4-hydroxy-1-methoxy-4-methylpentyl) hexadecahydro-1H-cyclopenta[a]phenanthren-3-ol]: 500 to 1000 nM; `CC[C@]1(O)CC[C@@]2(C)[C@@H](CC[C@@H]3[C@@H]2CC[C@]2(C)[C@@H]([C@@H](CC[C@](C)(O)C(F)(F)F)OC)CC[C@@H]32)C1` [Compound A-24, (3S,5S,8R,9S,10S,13S,14S,17S)-3-ethyl-10,13-dimethyl-17-((1R,4S)-5,5,5-trifluoro-4-hydroxy-1-methoxy-4-methylpentyl) hexadecahydro-1H-cyclopenta[a]phenanthren-3-ol]: 100 to 500 nM.
As to `CC[C@]1(O)CC[C@@]2(C)[C@@H](CC[C@H]3[C@@H]4[C@@H]5C[C@@H]5[C@H]([C@H](C)CCCC(C)(C)O)[C@@]4(C)CC[C@@H]32)C1` [Compound B-1, (2S,4aS,4bS,6aR,7S,7aS,8aR,8bS,8cR,10aS)-2-ethyl-7-((R)-6-hydroxy-6-methylheptan-2-yl)-4a,6a-dimethyloctadecahydrocyclopropa[4,5]cyclopenta[1,2-a]phenanthren-2-ol], for the setting “Table B-2”, the Emax is > 200% and the EC50 fell in the range of 1 to 100 nM.
The matching figures for `CC[C@]1(O)CC[C@@]2(C)[C@@H](CC[C@H]3[C@@H]4[C@@H]5C[C@@H]5[C@H]([C@H](C)CC[C@@](C)(O)C(F)(F)F)[C@@]4(C)CC[C@@H]32)C1` [Compound B-2, (2S,4aS,4bS,6aR,7S,7aS,8aR,8bS,8cR,10aS)-2-ethyl-4a,6a-dimethyl-7-((2R,5R)-6,6,6-trifluoro-5-hydroxy-5-methylhexan-2-yl)octadecahydrocyclopropa[4,5]cyclopenta[1,2-a]phenanthren-2-ol]: > 200% and 100 to 500 nM.
The corresponding values for `CC[C@]1(O)CC[C@@]2(C)[C@@H](CC[C@H]3[C@@H]4[C@@H]5C[C@@H]5[C@H]([C@H](C)CC[C@](C)(O)C(F)(F)F)[C@@]4(C)CC[C@@H]32)C1` [Compound B-3, (2S,4aS,4bS,6aR,7S,7aS,8aR,8bS,8cR,10aS)-2-ethyl-4a,6a-dimethyl-7-((2R,5S)-6,6,6-trifluoro-5-hydroxy-5-methylhexan-2-yl)octadecahydrocyclopropa[4,5]cyclopenta[1,2-a]phenanthren-2-ol] are > 200% and 1 to 100 nM.
For `CC[C@]1(O)CC[C@@]2(C)[C@@H](CC[C@H]3[C@@H]4[C@H]5C[C@H]5[C@H]([C@H](C)CCCC(C)(C)O)[C@@]4(C)CC[C@@H]32)C1` [Compound B-4, (2S,4aS,4bS,6aR,7S,7aR,8aS,8bS,8cR,10aS)-2-ethyl-7-((R)-6-hydroxy-6-methylheptan-2-yl)-4a,6a-dimethyloctadecahydrocyclopropa[4,5]cyclopenta[1,2-a]phenanthren-2-ol], for the setting “Table B-2”, the Emax is > 200% and the EC50 fell in the range of 1 to 100 nM.
